In ChEMBL document CHEMBL1155460, “Prediction of acetylcholinesterase inhibitors and characterization of correlative molecular descriptors by machine learning methods” (Eur J Med Chem, 2010):

Target: Acetylcholinesterase (Homo sapiens, UniProt P22303)
Sequence (P22303 whole entry): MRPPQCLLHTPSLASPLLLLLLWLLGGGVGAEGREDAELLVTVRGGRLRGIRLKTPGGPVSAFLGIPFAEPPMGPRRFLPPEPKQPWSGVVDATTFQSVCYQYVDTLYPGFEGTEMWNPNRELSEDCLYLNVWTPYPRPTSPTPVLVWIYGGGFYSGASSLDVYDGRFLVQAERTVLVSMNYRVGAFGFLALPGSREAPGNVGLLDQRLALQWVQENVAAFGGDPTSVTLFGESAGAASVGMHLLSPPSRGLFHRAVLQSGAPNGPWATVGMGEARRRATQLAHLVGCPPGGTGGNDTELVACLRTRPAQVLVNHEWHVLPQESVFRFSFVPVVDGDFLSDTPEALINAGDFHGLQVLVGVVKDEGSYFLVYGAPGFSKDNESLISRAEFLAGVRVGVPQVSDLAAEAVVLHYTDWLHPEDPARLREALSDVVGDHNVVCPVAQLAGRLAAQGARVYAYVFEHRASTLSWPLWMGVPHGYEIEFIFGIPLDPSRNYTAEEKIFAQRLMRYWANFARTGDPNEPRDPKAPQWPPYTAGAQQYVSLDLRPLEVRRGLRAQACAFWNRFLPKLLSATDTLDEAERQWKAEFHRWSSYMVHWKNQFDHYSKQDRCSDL

| SMILES | IC50 |
| --- | --- |
| CN(CCOCCNC(=S)NC(=O)c1ccccc1)Cc1ccccc1 | 0.12 µM |
| CN(CCOCCNC(=S)Nc1ccc(OC(F)(F)F)cc1)Cc1ccccc1 | 1 µM |
| CN(CCOCCCNC(=S)NC(=O)c1ccccc1)Cc1ccccc1 | 1.1 µM |
| CN(CCOCCNC(=S)NC(=O)c1ccc(-c2ccccc2)cc1)Cc1ccccc1 | 0.23 µM |
| Cc1ccc(C(=O)NC(=S)NCCOCCN(C)Cc2ccccc2)cc1 | 0.077 µM |
| O=C(CCC1CCN(Cc2ccccc2)CC1)c1ccc2c(c1)OCO2 | 0.03 µM |
| c1ccc2c(NCCCCCCCCNc3c4c(nc5ccccc35)CCCC4)ccnc2c1 | 0.0088 µM |
| c1ccc2c(NCCCCCCCCCNc3c4c(nc5ccccc35)CCCC4)ccnc2c1 | 0.038 µM |
| COc1cc2c(cc1OC)C(O)C(CC1CCN(c3ccccc3)CC1)C2 (configuration not stated) | 0.3 µM |
| c1ccc(CN2CCC(Nc3ccc(-c4ccccc4)nn3)CC2)cc1 | 65 µM |
| c1ccc(CN2CCC(CNc3ccc(-c4ccccc4)nn3)CC2)cc1 | 56 µM |
| CNC(=O)Oc1cccc(CN(C)CCCOc2ccc3c(c2)O/C(=C\c2cc(O)c(O)c(O)c2)C3=O)c1 | 0.00299 µM |
| c1ccc2c(NCCCCCCNc3c4c(nc5ncccc35)CCCCC4)c3c(nc2c1)CCCCC3 | 0.0025 µM |
| O=C1c2ccccc2CCC1CC1CCN(c2ccccc2)CC1 (configuration not stated) | 2.1 µM |
| O=C1c2ccccc2CCCC1CC1CCN(c2ccccc2)CC1 (configuration not stated) | 15 µM |
| NCCCCCCCNc1c2c(nc3ccccc13)CCCC2 | 0.319 µM |
| NCCCCCCCCCNc1c2c(nc3ccccc13)CCCC2 | 0.131 µM |
| CN(C)CCCCCCCNc1c2c(nc3ccccc13)CCCC2 | 0.052 µM |
| COc1cc2c(cc1OC)C(=O)C(CC1CCN(c3ccccc3)CC1)C2 (configuration not stated) | 0.0057 µM |
| O=C(CCc1c[nH]c2ccccc12)NCCCCCCNc1c2c(nc3ccccc13)CCCC2 | 2e-05 µM |
| O=C(CCc1c[nH]c2ccccc12)NCCCCCCCNc1c2c(nc3ccccc13)CCCC2 | 6e-05 µM |
| NCCCCCCCCCCNc1c2c(nc3ccccc13)CCCC2 | 0.147 µM |
| NCCCCCCCCCCCCNc1c2c(nc3ccccc13)CCCC2 | 0.18 µM |

| SMILES | IC50 |
| --- | --- |
| CN(C)CCCCCCCCNc1c2c(nc3ccccc13)CCCC2 | 0.047 µM |
| CN(C)CCCCCCCCCNc1c2c(nc3ccccc13)CCCC2 | 0.071 µM |
| c1ccc2c(NCCCCCCCCNc3ccncc3)c3c(nc2c1)CCCC3 | 0.0136 µM |
| Cc1ccc2nc3c(c(Nc4ccccc4)c2c1)CCCC3 | 3.7 µM |
| O=C(CCc1c[nH]c2ccccc12)NCCCCCCCCCCNc1c2c(nc3cc(Cl)ccc13)CCCC2 | 0.0219 µM |
| CN(C)CCCCCCCCCCNc1c2c(nc3ccccc13)CCCC2 | 0.045 µM |
| CN(C)CCCCCCCCCCCCNc1c2c(nc3ccccc13)CCCC2 | 0.264 µM |
| c1ccc2c(NCCCCCCCNc3ccncc3)c3c(nc2c1)CCCC3 | 0.0128 µM |
| c1ccc2c(NCCCCCCCCCNc3ccncc3)c3c(nc2c1)CCCC3 | 0.083 µM |
| c1ccc2c(NCCCCCCCCCCNc3ccncc3)c3c(nc2c1)CCCC3 | 0.176 µM |
| c1ccc(-c2ccc(NCN3CCCCC3)nc2)cc1 | 13 µM |
| c1ccc(-c2cnc(NCN3CCCCC3)nc2)cc1 | 100 µM |
| c1ccc(NCCCCCCCCCCCCNc2c3c(nc4ccccc24)CCCC3)cc1 | 0.261 µM |
| c1ccc2c(NCCCCCCCNc3c4c(nc5ccccc35)CCCC4)ccnc2c1 | 0.0101 µM |
| Cc1ccc2c(Nc3ccccc3)c3c(nc2c1)CCCC3 | 0.75 µM |
| Clc1ccc2c(Nc3ccccc3)c3c(nc2c1)CCCC3 | 0.17 µM |
| c1ccc(-c2ncc(NCN3CCCCC3)nn2)cc1 | 57 µM |
| c1ccc(-c2nnc(NCN3CCCCC3)s2)cc1 | 54 µM |
| c1ccc(-c2cnc(NCN3CCCCC3)nn2)cc1 | 60 µM |
| c1ccc(C2=NNC(NCN3CCCCC3)=NC2)cc1 | 47 µM |
| Nc1c2c(nc3ccccc13)-c1cc(Br)ccc1CC2 | 144 µM |
| O=[N+]([O-])c1ccc2nc3c(c(Nc4ccccc4)c2c1)CCCC3 | 1.6 µM |

| SMILES | IC50 |
| --- | --- |
| O=[N+]([O-])c1ccc2c(Nc3ccccc3)c3c(nc2c1)CCCC3 | 4.8 µM |
| CN(CCOCCNC(=S)NC(=O)c1ccc2c(c1)C(=O)c1ccccc1-2)Cc1ccccc1 | 0.03 µM |
| CN(CCOCCNC(=S)NC(=O)c1ccc2c(c1)C(=O)c1ccccc1C2=O)Cc1ccccc1 | 0.006 µM |
| CN(CCOCCNC(=S)Nc1ccccn1)Cc1ccccc1 | 4 µM |
| O=C1c2ccccc2CC1CC1CCN(c2ccccc2)CC1 (configuration not stated) | 0.15 µM |
| COc1cc2c(cc1OC)CC(CC1CCN(c3ccccc3)CC1)=C2 | 4.4 µM |
| CNC(=O)Oc1cccc(CN(C)CCCCCCCOc2ccc3c(c2)O/C(=C\c2cc(O)c(O)c(O)c2)C3=O)c1 | 0.00052 µM |
| CNC(=O)Oc1cccc(CN(C)CCCCCCCOc2ccc3c(c2)C/C(=C\c2cc(O)c(O)c(O)c2)C3=O)c1 | 0.0018 µM |
| CNC(=O)Oc1cccc(CN(C)CCCCCCCOc2ccc3c(c2)OC/C(=C/c2cc(O)c(O)c(O)c2)C3=O)c1 | 0.00981 µM |
| CNC(=O)Oc1cccc(CN(C)CCCCCCCOc2ccc3c(c2)CC/C(=C/c2cc(O)c(O)c(O)c2)C3=O)c1 | 0.00494 µM |
| O=C(CCOCCc1c[nH]c2ccccc12)NCCCCCNc1c2c(nc3cc(Cl)ccc13)CCCC2 | 0.0015 µM |
| CC1Cc2c(nc3ccccc3c2N)C1(C)O (configuration not stated) | 134 µM |
| Nc1c2c(nc3ccccc13)-c1ccccc1NCC2 | 69.4 µM |
| Nc1c2ccccc2nc2c1cnc1cc(Cl)ccc12 | 1000 µM |
| COc1ccc2c(c1)CCc1c-2nc2ccccc2c1N | 47 µM |
| Nc1c2c(nc3ccccc13)CCCc1ccccc1-2 | 38.2 µM |
| Nc1c2c(nc3ccccc13)CCC2 | 0.056 µM |
| CCCCC1=C(C)Cc2c1nc1ccccc1c2N | 25 µM |
| CC1=C(C)c2nc3ccccc3c(N)c2C1 | 3.5 µM |
| CCCCC1(O)c2nc3ccccc3c(N)c2CC1C (configuration not stated) | 91 µM |
| COc1ccc2c(c1)CCCc1c-2nc2ccccc2c1N | 68.8 µM |
| N#Cc1ccc2[nH]cc(CCC(=O)NCCCCCCNc3c4c(nc5cc(Cl)ccc35)CCCC4)c2c1 | 0.0007 µM |
| O=C(Cc1c[nH]c2ccccc12)NCCCCCCCNc1c2c(nc3cc(Cl)ccc13)CCCC2 | 0.0002 µM |

| SMILES | IC50 |
| --- | --- |
| O=C(NCCCCCCCCNc1c2c(nc3cc(Cl)ccc13)CCCC2)c1c[nH]c2ccccc12 | 0.046 µM |
| O=C(CCc1c[nH]c2ccccc12)NCCCCCNc1c2c(nc3ccccc13)CCCC2 | 0.07 µM |
| O=C(/C=C/c1c[nH]c2ccccc12)NCCCCCCNc1c2c(nc3cc(Cl)ccc13)CCCC2 | 0.018 µM |
| CN(CCCNC(=O)CCc1c[nH]c2ccccc12)CCCNc1c2c(nc3ccccc13)CCCC2 | 0.147 µM |
| O=C(NCCCCCCNc1c2c(nc3cc(Cl)ccc13)CCCC2)c1c[nH]c2ccccc12 | 0.033 µM |
| O=C(CCCc1c[nH]c2ccccc12)NCCCCCNc1c2c(nc3cc(Cl)ccc13)CCCC2 | 0.0003 µM |
| O=C(Cc1c[nH]c2ccc(Br)cc12)NCCCCCCCNc1c2c(nc3cc(Cl)ccc13)CCCC2 | 0.0006 µM |
| c1ccc(CN2CCC(CCNc3ccc(-c4ccccc4)nn3)CC2)cc1 | 0.12 µM |
| NCCCCCCCCNc1c2c(nc3ccccc13)CCCC2 | 0.089 µM |
| Clc1ccc2c(NCCCCCCCNc3c4c(nc5cc(Cl)ccc35)CCCC4)c3c(nc2c1)CCCC3 | 7e-05 µM |
| Fc1ccc2c(NCCCCCCCCNc3c4c(nc5cc(F)ccc35)CCCC4)c3c(nc2c1)CCCC3 | 0.0007 µM |
| CN(CCOCCNC(=S)NC(=O)c1ccccc1)C1CCCCC1 | 0.013 µM |
| Nc1c2c(nc3ccccc13)-c1ccccc1NCCC2 | 391 µM |
| COc1ccc(NC(=S)NCCOCCN(C)Cc2cccc([N+](=O)[O-])c2)cc1OC | 1.5 µM |
| CCN(CCOCCNC(=O)NCc1ccccc1)CC1CCCCC1 | 10 µM |
| Nc1c2c(nc3ccccc13)CCCCC2 | 0.039 µM |
| CC12CCC(c3c1nc1ccccc1c3N)C2(C)C (configuration not stated) | 110 µM |
| Nc1c2c(nc3ccccc13)-c1ccccc1CCC2 | 166 µM |
| CNC(=O)Oc1cccc(CN(C)CCCCCCCOc2ccc3c(c2)O/C(=C\c2cccc4ccccc24)C3=O)c1 | 0.00209 µM |
| CN(CCCNC(=O)CCc1c[nH]c2ccccc12)CCCNc1c2c(nc3cc(Cl)ccc13)CCCC2 | 0.0029 µM |
| O=C(NCCCCCNc1c2c(nc3cc(Cl)ccc13)CCCC2)c1c[nH]c2ccccc12 | 0.18 µM |
| O=C(NCCCCCCCNc1c2c(nc3cc(Cl)ccc13)CCCC2)c1n[nH]c2ccccc12 | 0.095 µM |
| O=C(NCCCCCCCNc1c2c(nc3cc(Cl)ccc13)CCCC2)c1c[nH]c2ccccc12 | 0.036 µM |

| SMILES | IC50 |
| --- | --- |
| O=C(CCc1c[nH]c2ccccc12)NCCCCCCCCNc1c2c(nc3cc(Cl)ccc13)CCCC2 | 0.0005 µM |
| CN(CCOCCNC(=S)Nc1cccc2ccccc12)Cc1ccccc1 | 10 µM |
| Cn1cc(C(=O)NCCCCCCCNc2c3c(nc4cc(Cl)ccc24)CCCC3)c2ccccc21 | 0.0109 µM |
| O=C(CCCc1c[nH]c2ccccc12)NCCCCCCNc1c2c(nc3cc(Cl)ccc13)CCCC2 | 0.0005 µM |
| Nc1c2c(nc3ccccc13)-c1ccccc1C2 | 0.35 µM |
| Clc1ccc2c(NCCCCCCNc3c4c(nc5cc(Cl)ccc35)CCCC4)c3c(nc2c1)CCCC3 | 0.0006 µM |
| c1ccc2c(NCCCCCCNc3c4c(nc5ccccc35)CCCC4)c3c(nc2c1)CCCC3 | 0.0014 µM |
| Fc1ccc2c(NCCCCCCCNc3c4c(nc5cc(F)ccc35)CCCC4)c3c(nc2c1)CCCC3 | 0.0006 µM |
| Fc1ccc2c(NCCCCCCNc3c4c(nc5cc(F)ccc35)CCCC4)c3c(nc2c1)CCCC3 | 0.0009 µM |
| c1ccc2c(NCCCCCCCNc3c4c(nc5ccccc35)CCC4)c3c(nc2c1)CCC3 | 0.075 µM |
| c1cnc2nc3c(c(NCCCCCCCNc4c5c(nc6ncccc46)CCCC5)c2c1)CCCC3 | 0.0013 µM |
| Nc1c2c(nc3ccccc13)-c1ccccc1CC2 | 37 µM |
| CC(C)c1cc(-c2ccccc2)nnc1NCCC1CCN(Cc2ccccc2)CC1 | 0.43 µM |
| CCc1cc(=NCCC2CCN(Cc3ccccc3)CC2)[nH]nc1-c1ccccc1 | 0.027 µM |
| Cc1cc(=NCCC2CCN(Cc3ccccc3)CC2)[nH]nc1-c1ccccc1 | 0.021 µM |
| CCCc1cc(=NCCC2CCN(Cc3ccccc3)CC2)[nH]nc1-c1ccccc1 | 0.061 µM |
| c1ccc(CN2CCC(CCN=c3[nH]nc(-c4ccccc4)c4ccccc34)CC2)cc1 | 0.44 µM |
| Cc1cc(-c2ccccc2)nnc1NCCC1CCN(Cc2ccccc2)CC1 | 0.32 µM |
| CN(CCOCCNC(=O)Nc1ccc([N+](=O)[O-])cc1)Cc1ccccc1 | 2.3 µM |
| CN(CCOCCNC(=S)NC1CCCCC1)Cc1ccccc1 | 1.4 µM |
